From patent US20110201564A1, “SUBSTITUTED 7-SULFANYLMETHYL, 7-SULFINYLMETHYL AND 7-SULFONYLMETHYL INDOLES AND USE THEREOF” (BAYER SCHERING PHARMA AKTIENGESELLSCHAFT, priority 2008, published 2011)
Where two headings read alike, the source gives them in different places.

Assays:
CYP3A4 = target: T1, CYP3A4 (Homo sapiens, UniProt P08684); experiment: CYP inhibition assay with human liver microsomes; type: in vitro ADME
T1 construct: using human liver microsomes (pool from various individuals); from tissue; host or cells: human liver microsomes (pool from various individuals)
Excerpt: Inhibitory properties of an active ingredient on the cytochromes P450 (CYP) of the human body may entail extensive clinical effects (drug interactions) because most of the prescribed medicaments are degraded (metabolized) by these enzymes. The ones involved in this are in particular the CYP isoenzymes of the 1A and 2C families, CYP2D6 and, with a proportion of almost 50%, CYP3A4. In order to preclude or minimize these possible drug interactions (Drug-Drug Interactions, DDI), the ability of substances to be able to inhibit CYP1A2, CYP2C8, CYP2C9, CYP2D6 and CYP3A4 in humans is investigated using human liver microsomes (pool from various individuals). This takes place by measuring CYP isoform-specific metabolites formed from standard substrates such as, for example, phenacetin, amodiaquin, diclofenac, dextromethorphan, midazolam and testosterone. The inhibitory effects are investigated at six different concentrations of the test compounds (1.5, 3.1, 6.3, 12.5, 25 and 50 μM as maximum concentration or 0.6, 1.3, 2.5, 5, 10 and 20 μM as maximum concentration), comparing with the extent of the CYP isoform-specific metabolite formation of the standard substrates in the absence of the test compounds, and calculating the corresponding IC50 values. CYP isoform-specific standard inhibitors such as, for example, fluvoxamine, quercetin, sulfaphenazole, fluoxetine and ketoconazole serve as control of the results obtained. In order to obtain indications of the possible mechanism-based inhibitors (MBI) on CYP3A4, the human liver microsomes are incubated in the presence of the inhibitor to be investigated for 30 minutes before the addition of midazolam or testosterone as standard substrates of CYP3A4. A reduction in the IC50 obtained by comparison with the mixture without preincubation serves as an indicator of a mechanism-based inhibition. Mibefradil serves as positive control.
The incubations of the standard substrates with human liver microsomes (23-233 μg/mL) in the presence of the test compound (as potential inhibitor) are carried out in 96-well plates in a workstation (Tecan, Genesis, Crailsheim, Germany) at 37° C. The incubation times are 15-20 minutes. The test compounds are preferably dissolved in acetonitrile (1.0 or 2.5 mM stock solution). The 96-well plates are produced by sequential addition of a stock solution of NADP+, EDTA, glucose 6-phosphate and glucose-6-phosphate dehydrogenase in phosphate buffer (pH 7.4), the test compound, and a solution of standard substrate and human liver microsomes in phosphate buffer (pH 7.4). The total volume is 200 μl. The corresponding control incubations with and without standard inhibitor also take place on the 96-well plate. The incubations are stopped after the respective incubation time by adding 100 μl of acetonitrile in which there is a suitable internal standard. Precipitated proteins are removed by centrifugation (3000 rpm, 10 minutes, 10° C.). The resulting supernatants of the respective plates are combined on one plate and analyzed by LC-MS/MS. The […] values are generated from the resulting measured data and used to assess the inhibitory potential of the test compound.

[1] = target: T2, progesterone receptor (PR) (Homo sapiens, UniProt P06401); experiment: Cellular in vitro assay, GAL4-PR chimera luciferase reporter in CHO K1 cells (selectivity); type: cell-based; conditions: antagonism vs progesterone; CHO K1 GAL4-PR LBD luciferase reporter
T2 construct: of the progesterone receptor (PR, amino acids 680-933); expressed in transfected cells; host or cells: CHO K1
T2 sequence (P06401 680-933): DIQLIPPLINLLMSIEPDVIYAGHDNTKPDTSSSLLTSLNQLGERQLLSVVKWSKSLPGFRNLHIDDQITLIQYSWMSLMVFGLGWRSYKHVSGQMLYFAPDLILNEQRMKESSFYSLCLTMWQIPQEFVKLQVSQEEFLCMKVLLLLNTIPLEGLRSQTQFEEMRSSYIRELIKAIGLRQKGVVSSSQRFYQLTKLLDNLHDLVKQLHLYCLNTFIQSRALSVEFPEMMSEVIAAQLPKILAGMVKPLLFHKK
Excerpt: (§1) 1. Cellular In Vitro Assay to Determine the Inhibitory MR Activity and MR Selectivity Compared with Other Steroid Hormone Receptors
(§2) Antagonists of the human mineralocorticoid receptor (MR) are identified, and the activity of the compounds described herein is quantified with the aid of a recombinant cell line. The cell is originally derived from a hamster ovary epithelial cell (Chinese Hamster Ovary, CHO K1, ATCC: American Type Culture Collection, VA 20108, USA).
(§3) An established chimera system in which the ligand-binding domains of human steroid hormone receptors are fused to the DNA-binding domain of the yeast transcription factor GAL4 is used in this CHO K1 cell line. The GAL4-steroid hormone receptor chimeras produced in this way are cotransfected and stably expressed with a reporter construct in the CHO cells.
(§4) To generate the GAL4-steroid hormone receptor chimeras, the GAL4 DNA-binding domain (amino acids 1-147) from the vector pFC2-dbd (from Stratagene) is cloned with the PCR-amplified ligand-binding domains of the mineralocorticoid receptor (MR, amino acids 734-985), of the progesterone receptor (PR, amino acids 680-933) and of the androgen receptor (AR, amino acids 667-919) into the vector pIRES2 (from Clontech). The reporter construct, which comprises five copies of the GAL4 binding site upstream of a thymidine kinase promoter, leads to expression of firefly luciferase (Photinus pyralis) after activation and binding of the GAL4-steroid hormone receptor chimeras by the respective specific agonists aldosterone (MR), dexamethasone (GR), progesterone (PR) and dihydrotestosterone (AR).
(§5) The MR, PR and AR cells are plated out in medium (Optimem, 2.5% FCS, 2 mM glutamine, 10 mM HEPES) in 96- (or 384- or 1536-)well microtiter plates on the day before the assay and are kept in a cell incubator (96% humidity, 5% v/v CO2, 37° C.). On the day of the assay, the substances to be tested are taken up in the abovementioned medium and added to the cells. About 10 to 30 minutes after addition of the test substances, the respective specific agonists of the steroid hormone receptors are added. After a further incubation time of 5 to 6 hours, the luciferase activity is measured with the aid of a video camera. The measured relative light units as a function of the substance concentration result in a sigmoidal stimulation curve. The IC50 values are calculated with the aid of the GraphPad PRISM computer program (Version 3.02).

[2] = target: T3, human mineralocorticoid receptor (MR) (Homo sapiens, UniProt P08235); experiment: Cellular in vitro assay, GAL4-MR chimera luciferase reporter in CHO K1 cells (inhibitory MR activity); type: cell-based; conditions: antagonism vs aldosterone; CHO K1 GAL4-MR LBD luciferase reporter
T3 construct: expressed in transfected cells; host or cells: CHO K1
T3 sequence (P08235 734-984 limits assumed): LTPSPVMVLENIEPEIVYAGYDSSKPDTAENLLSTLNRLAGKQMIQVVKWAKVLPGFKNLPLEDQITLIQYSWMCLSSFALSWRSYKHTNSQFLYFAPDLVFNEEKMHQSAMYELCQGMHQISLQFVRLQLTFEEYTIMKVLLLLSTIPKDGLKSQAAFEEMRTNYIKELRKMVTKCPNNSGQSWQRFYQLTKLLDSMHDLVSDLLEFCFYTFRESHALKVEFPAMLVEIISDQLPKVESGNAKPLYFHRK
Excerpt: as §1, §2, §3, §4, §5

androgen receptor (AR) = target: T4, androgen receptor (AR) (Homo sapiens, UniProt P10275); experiment: Cellular in vitro assay, GAL4-AR chimera luciferase reporter in CHO K1 cells (selectivity); type: cell-based; conditions: antagonism vs dihydrotestosterone; CHO K1 GAL4-AR LBD luciferase reporter
T4 construct: of the androgen receptor (AR, amino acids 667-919); expressed in transfected cells; host or cells: CHO K1
T4 sequence (P10275 668-920): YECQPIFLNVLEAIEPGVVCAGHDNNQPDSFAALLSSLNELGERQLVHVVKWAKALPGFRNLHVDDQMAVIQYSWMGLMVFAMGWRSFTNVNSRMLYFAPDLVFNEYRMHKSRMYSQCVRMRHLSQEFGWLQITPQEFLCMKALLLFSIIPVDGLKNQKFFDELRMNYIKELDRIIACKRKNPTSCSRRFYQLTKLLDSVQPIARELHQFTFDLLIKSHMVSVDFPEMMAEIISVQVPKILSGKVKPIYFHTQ
Excerpt: as §1, §2, §3, §4, §5

[3] = 30 min preincubation with test compound before substrate, read-out: CYP 3A4 Preincubation, 30 min.
[4] = without preincubation, read-out: CYP 3A4 Coincubation

T1 sequence (P08684 whole entry): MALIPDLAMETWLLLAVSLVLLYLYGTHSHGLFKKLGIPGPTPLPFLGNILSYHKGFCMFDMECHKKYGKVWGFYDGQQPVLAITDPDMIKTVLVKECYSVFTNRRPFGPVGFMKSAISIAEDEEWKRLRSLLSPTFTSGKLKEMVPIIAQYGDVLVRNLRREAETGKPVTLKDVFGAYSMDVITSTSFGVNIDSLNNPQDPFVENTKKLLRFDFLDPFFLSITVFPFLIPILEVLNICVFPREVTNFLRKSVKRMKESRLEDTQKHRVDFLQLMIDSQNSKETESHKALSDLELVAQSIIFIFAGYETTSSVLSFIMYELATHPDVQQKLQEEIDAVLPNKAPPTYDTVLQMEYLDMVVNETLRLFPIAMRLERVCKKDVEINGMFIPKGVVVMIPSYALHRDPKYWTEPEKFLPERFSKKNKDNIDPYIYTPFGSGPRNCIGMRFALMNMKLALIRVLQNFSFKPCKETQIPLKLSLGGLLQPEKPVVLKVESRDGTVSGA

SMILES | IC50 (CYP3A4; [3]) | IC50 (CYP3A4; [4]) | IC50 [1] | IC50 [2] | IC50 (androgen receptor (AR))
Cc1ccc(C(CCC#N)c2c[nH]c3c(CS(C)(=O)=O)cccc23)cc1 (stereo not shown) [Example 166, 4-(4-Methylphenyl)-4-{7-[(methylsulfonyl)methyl]-1H-indol-3-yl}butanonitrile] | 17.6 µM | > 20 µM | 10 µM | 0.22 µM | –
CS(=O)(=O)Cc1cccc2c(C(c3ccc(C(F)(F)F)cc3)C3CC3)c[nH]c12 (stereo not shown) [Example 244, 3-{Cyclopropyl[4-(trifluoromethyl)phenyl]methyl}-7-[(methylsulfonyl)methyl]-1H-indole] | > 20 µM | > 20 µM | – | 0.17 µM | –
Cc1cc(Cl)ccc1C(CCO)c1c[nH]c2c(CS(C)(=O)=O)cccc12 (stereo not shown) [Example 26, 3-(4-Chloro-2-methylphenyl)-3-{7-[(methylsulfonyl)methyl]-1H-indol-3-yl}propan-1-ol] | – | – | 2.32 µM | 0.05 µM | 2.23 µM
C[S+]([O-])Cc1cccc2c(C(C)(c3ccc(Cl)cc3F)C3CC3)c[nH]c12 (mixture of isomers) [Example 124, 3-[1-(4-Chloro-2-fluorophenyl)-1-cyclopropylethyl]-7-[(methylsulfinyl)methyl]-1H-indole] | – | – | 8.13 µM | 0.12 µM | 6.94 µM
CS(=O)(=O)Cc1cccc2c(C(c3ccc(F)cc3)c3ccc(Cl)cc3)c[nH]c12 (single isomer, unassigned) [Example 114-2, 3-[(4-Chlorophenyl)(4-fluorophenyl)methyl]-7-[(methylsulfonyl)methyl]-1H-indole] | – | – | 6.55 µM | 0.22 µM | 1.23 µM
C[S+]([O-])Cc1cccc2c(C(c3ccc(F)cc3)c3ccc(Cl)cc3F)c[nH]c12 (mixture of isomers) [Example 130, 3-[(4-Chloro-2-fluorophenyl)(4-fluorophenyl)methyl]-7-[(methylsulfinyl)methyl]-1H-indole] | – | – | 8.88 µM | 0.1 µM | 5.74 µM
CSCc1cc(F)cc2c(C3(C4CC4)CCc4cc(F)ccc43)c[nH]c12 (stereo not shown) [Example 94, 3-(1-Cyclopropyl-5-fluoro-2,3-dihydro-1H-inden-1-yl)-5-fluoro-7-[(methylsulfanyl)methyl]-1H-indole] | – | – | 3.14 µM | 0.16 µM | 1.6 µM
C[S+]([O-])Cc1cccc2c(C(CCC#N)c3ccc(Cl)cc3)c[nH]c12 (single isomer, unassigned) [Example 78-4, 4-(4-Chlorophenyl)-4-{7-[(methylsulfinyl)methyl]-1H-indol-3-yl}butanonitrile] | – | – | 7.91 µM | 0.15 µM | 8.89 µM
CS(=O)(=O)Cc1c(F)ccc2c(C(CCC#N)c3ccc(Cl)cc3)c[nH]c12 (stereo not shown) [Example 71, 4-(4-Chlorophenyl)-4-{6-fluoro-7-[(methylsulfonyl)methyl]-1H-indol-3-yl}butanonitrile] | – | – | 4.47 µM | 0.32 µM | 3.99 µM
CCC(CCO)(c1ccc(Cl)cc1)c1c[nH]c2c(C[S+](C)[O-])cccc12 (mixture of isomers) [Example 143, 3-(4-Chlorophenyl)-3-{7-[(methylsulfinyl)methyl]-1H-indol-3-yl}pentan-1-ol] | – | – | 4.58 µM | 0.14 µM | 6.44 µM

The next compounds have a lower IC50 [2] than those just listed; values first:

IC50 (CYP3A4; [3]) | IC50 (CYP3A4; [4]) | IC50 [1] | IC50 [2] | IC50 (androgen receptor (AR)) | SMILES
– | – | 4.31 µM | 0.007 µM | 3.8 µM | CCC(CCC#N)(c1ccc(Cl)cc1)c1c[nH]c2c(CS(C)(=O)=O)cccc12 (single isomer, unassigned) [Enantiomer 172-1, 4-(4-Chlorophenyl)-4-{7-[(methylsulfonyl)methyl]-1H-indol-3-yl}hexanonitrile]
– | – | 7.53 µM | 0.012 µM | 0.52 µM | CS(=O)(=O)Cc1cccc2c(C(c3ccc(Cl)cc3Cl)C3CC3(F)F)c[nH]c12 (single isomer, unassigned) [Example 325-1-1, 3-[(2,4-Dichlorophenyl)(2,2-difluorocyclopropyl)methyl]-7-[(methylsulfonyl)methyl]-1H-indole]
– | – | 2.14 µM | 0.018 µM | 3.39 µM | CCC(CCC#N)(c1ccc(Cl)cc1)c1c[nH]c2c(CSC)cccc12 (stereo not shown) [Example 157, 4-(4-Chlorophenyl)-4-{7-[(methylsulfanyl)methyl]-1H-indol-3-yl}hexanonitrile]
– | – | 11.7 µM | 0.04 µM | 5.31 µM | CC(c1ccc(Cl)cc1)(c1c[nH]c2c(CS(C)(=O)=O)cccc12)C1CC1C#N (stereo not shown) [Example 106, 2-[1-(4-Chlorophenyl)-1-{7-[(methylsulfonyl)methyl]-1H-indol-3-yl}ethyl]cyclopropanecarbonitrile]
